The source of these data is publication PMC6774072, “Azologization and repurposing of a hetero-stilbene-based kinase inhibitor: towards the design of photoswitchable sirtuin inhibitors” (Beilstein Journal of Organic Chemistry, 2019).

Several values for one entry are separate records, joined by “and”; a condition that tells them apart may be missing. Equal values may be shown once.

One data set deals with T1, Sirt1 (Homo sapiens, UniProt Q96EB6).
T1 construct: Expression and purification of Sirt1_133-747; made in house
T1 sequence (Q96EB6 133-747): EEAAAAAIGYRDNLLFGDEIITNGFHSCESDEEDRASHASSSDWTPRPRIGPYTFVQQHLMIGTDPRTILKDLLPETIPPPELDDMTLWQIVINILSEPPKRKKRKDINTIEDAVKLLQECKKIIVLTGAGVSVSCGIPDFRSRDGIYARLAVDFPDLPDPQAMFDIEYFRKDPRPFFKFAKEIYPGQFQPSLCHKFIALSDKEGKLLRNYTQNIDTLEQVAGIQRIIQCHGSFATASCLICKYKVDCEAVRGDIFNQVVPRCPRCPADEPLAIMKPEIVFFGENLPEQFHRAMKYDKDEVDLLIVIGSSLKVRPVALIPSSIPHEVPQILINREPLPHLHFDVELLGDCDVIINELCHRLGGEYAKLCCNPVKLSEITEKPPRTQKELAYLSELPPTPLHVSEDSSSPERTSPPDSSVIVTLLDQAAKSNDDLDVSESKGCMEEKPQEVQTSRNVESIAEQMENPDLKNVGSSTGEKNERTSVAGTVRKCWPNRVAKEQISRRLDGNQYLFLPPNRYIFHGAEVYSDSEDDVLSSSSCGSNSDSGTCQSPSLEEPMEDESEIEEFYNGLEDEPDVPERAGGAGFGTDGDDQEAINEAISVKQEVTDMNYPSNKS
The data set is described as follows: fluorescence-based deacetylase assay with Z-Lys(acetyl)-AMC (ZMAL) substrate. The data set is classed as biochemical. The conditions noted are these: for Sirt1 inhibition: n.i. = no inhibition detected, tested at 100 µM, 50 µM and 10 µM. As for the experimental part: (§1) The influence on deacetylase activity of three human sirtuin isoforms (Sirt1–3) was determined in a fluorescence-based assay, using Z-Lys(acetyl)-AMC (ZMAL) as a substrate. Compared to the lead structure 2a, all compounds except 2e–h show increased inhibitory activity against Sirt2 (Table 1). […] Moreover, a slight increase in selectivity for Sirt2 and Sirt3 over Sirt1 could be observed for 2c, 4a and 4b. […] Though not photoswitchable, compounds 4a and 4b were synthesized to test the influence of a rigid conformation around the C=C double bond on sirtuin inhibition. […] A recently developed fluorescence polarization (FP)-based assay enables mapping of ligand binding to this specific binding site. For 2a an interaction with the selectivity pocket was already implied in the same work. Additionally performed docking studies proposed a binding mode in which 2a mimics the nicotinamide residue of NAD^+, whereas aromatic amino acid residues of the selectivity pocket stabilize the dimethylphenol ring. As photoisomerization in stilbenes and azo dyes is accompanied by a perpendicular twist of the phenyl ring towards the former molecular plane, we assumed that this conformational change should provoke a differential binding situation at least for the dimethylphenol residue in 2a. Unfortunately, binding of 2b and c could not be localised in the vicinity of the selectivity pocket of Sirt2, so that the binding pose remains unclear.
(§2) The photoswitchable diazeno compound 11 was subjected to biological evaluation to test the effect of photoisomerization on the inhibitory activity. The enzyme assay mixture containing 11 was exposed to 5 minutes of 365 nm radiation and compared with the results of a non-irradiated measurement. […] Unfortunately, 365 nm radiation turned out to have only minor effects on the IC50 values of 11 (Table 3).
(§3) Cloning, expression and purification of recombinant proteins: Expression and purification of Sirt1_133-747, Sirt2_56−356, and Sirt3_118−395 was carried out as described previously. Identity and purity were verified by SDS-PAGE [65]. Protein concentration was determined by the Bradford assay.
(§4) Bioassay: The inhibitory effect of compounds 2a–h, 4a/b, 8a and 11 on Sirt1–3 was detected via a previously reported fluorescence based assay. The synthetic substrate Z-Lys(acetyl)-AMC (ZMAL) is deacetylated by sirtuins, followed by tryptic digestion and thereby release of […], leading to a fluorescent readout. Inhibition was determined by comparing percentage substrate conversion to a DMSO control after subtraction of the blank fluorescence signal. All compounds were tested at 100 µM, 50 µM and 10 µM, respectively. […] IC50 values were calculated with OriginPro 9.0 G using a non-linear regression to fit the dose response curve. An enzyme-free blank control and a 100% conversion control using AMC instead of ZMAL were measured as well. Inhibition measurements were performed in biological duplicates for all compounds.

The next data set addresses T2, Sirt3 (Homo sapiens, UniProt Q9NTG7).
T2 construct: Sirt3_118−395; made in house
T2 sequence (Q9NTG7 118-395): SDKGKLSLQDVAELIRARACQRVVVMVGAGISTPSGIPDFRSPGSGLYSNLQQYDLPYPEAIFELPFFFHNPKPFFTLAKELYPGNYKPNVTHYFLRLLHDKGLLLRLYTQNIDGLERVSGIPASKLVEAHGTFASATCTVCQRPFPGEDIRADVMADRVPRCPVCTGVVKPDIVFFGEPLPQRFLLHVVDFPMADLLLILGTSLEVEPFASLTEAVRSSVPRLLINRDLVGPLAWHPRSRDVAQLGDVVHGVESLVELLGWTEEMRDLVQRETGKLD
Described as above. Conditions: for IC50: mean ± SD of duplicate experiments, read-out: Sirt3 inhibition IC50; for inhibition at 50 µM / inhibition at 10 µM: percent inhibition relative to controls; for Sirt3 inhibition: n.i. = no inhibition detected, tested at 100 µM, 50 µM and 10 µM. Format: biochemical. As for the experimental part: as §1, §2, §3, §4

Another data set deals with T3, Sirt2 (Homo sapiens, UniProt Q8IXJ6).
T3 construct: Sirt2_56−356; made in house
T3 sequence (Q8IXJ6 56-356): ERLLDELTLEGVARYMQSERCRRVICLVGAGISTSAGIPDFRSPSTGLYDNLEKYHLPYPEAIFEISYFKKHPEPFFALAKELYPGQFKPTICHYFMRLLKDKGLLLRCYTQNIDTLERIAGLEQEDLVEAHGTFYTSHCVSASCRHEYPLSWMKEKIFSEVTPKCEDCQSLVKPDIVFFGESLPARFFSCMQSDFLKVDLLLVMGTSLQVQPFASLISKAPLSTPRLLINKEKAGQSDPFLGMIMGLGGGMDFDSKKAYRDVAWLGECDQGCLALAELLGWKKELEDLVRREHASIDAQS
The description is as above. Format: biochemical. Conditions: for IC50: mean ± SD of duplicate experiments, read-out: Sirt2 inhibition IC50; for inhibition at 10 µM / inhibition at 50 µM: percent inhibition relative to controls. As to the method: as §1, §2, §3, §4

Data set [1] is described as follows: E→Z photoisomerization of azastilbenes under 254 nm irradiation, proton NMR analysis. Format: physicochemical. Conditions: after 100 minutes of 254 nm irradiation, 10 mM in methanol. As for the experimental part:
Photochemistry of compounds 2b and 2f was investigated via UV–vis spectroscopy, LC–HRMS and NMR spectroscopy. Compound 2b represents the core structure of the azastilbenes investigated, whereas in 2f the influence of ortho methylation was intended to be examined. For UV–vis spectroscopy 50 µM solutions in 5% DMSO (v/v) in enzyme assay buffer were used, as this reflects the enzyme assay conditions. However, for LC-HRMS and NMR analysis, a higher concentration of 10 mM in methanol was necessary to receive reliable chromatograms and spectra.
LC–HRMS analysis provided deeper insights and clarified the differential behaviour observed in the UV–vis spectra of 2b and 2f after UV irradiation. As anticipated, UV irradiation lead to E→Z isomerization of the C=C double bond in both compounds. […] Unfortunately, the amount of photoisomerization was only moderate, since after 100 minutes of continuous irradiation still substantial amounts of the (E)-isomers were present in the mixtures (Figure 3). Proton NMR analysis implied photostationary states comprising a relative percentage of 45% (Z)-2b and 57% (Z)-2f, respectively after 100 minutes of 254 nm irradiation. The NMR spectra can be found in Supporting Information File 1.
Photochemistry: All photoisomerization experiments were conducted under ruby light of 630 nm. […]

Setting [2] is: percent inhibition relative to controls.

Usually inhibition stands for the drop in the measured response relative to a control, in per cent. High values mean a strong effect, low ones a weak effect. One may read the IC50 as the point on the concentration scale where inhibition reaches its midpoint. On Sirt1 (setting [2]), `Cc1cc(O)cc(C)c1/C=C/c1cncc(C(N)=O)c1` [Compound 2a, reference compound] showed an inhibition at 50 µM of 27%. Moreover, the IC50 at Sirt3 was 41.7 ± 2 µM; on Sirt2, 24.6 ± 2.8 µM.
Consider `NC(=O)c1cncc(/C=C/c2ccccc2)c1` [Compound 2b, (E)-5-Styrylnicotinamide], for which the “relative percentage of (Z)-isomer in photostationary state” value in data set [1] is given as 45%. On Sirt1 (setting [2]), the inhibition at 10 µM came out at 71%. The molecule also returned an inhibition at 50 µM on Sirt3 of 89%. For the same molecule, the IC50 on Sirt2 stood at 8.7 ± 0.2 µM.
Regarding `NC(=O)c1cncc(/C=C/c2ccc(F)cc2)c1` [Compound 2c, (E)-5-(4-Fluorostyryl)nicotinamide], the inhibition at 100 µM on Sirt1 (@ 100 µM, percent inhibition relative to controls) worked out at 51%. Besides, the half-maximal inhibitory concentration (IC50) at Sirt3 is 7.5 ± 0.9 µM; at Sirt2, ~7 µM and 6.6 µM.
Turning to `COc1ccc(/C=C/c2cncc(C(N)=O)c2)cc1` [Compound 2d], the inhibition at 10 µM is 51% against Sirt1 (setting [2]) and 64% at Sirt2. In addition, on Sirt3, the inhibition at 50 µM was found to be 90%.
Consider `NC(=O)c1cncc(/C=C/c2cccc(OCc3ccccc3)c2)c1` [Compound 2e], for which the inhibition at 50 µM against Sirt1 (setting [2]) came to 61%; on Sirt3, 60%; at Sirt2 it was 69%.
As to `COc1cc(C)c(/C=C/c2cncc(C(N)=O)c2)c(C)c1` [Compound 2f], the “relative percentage of (Z)-isomer in photostationary state” value in data set [1] worked out at 57%. Moreover, the inhibition at 10 µM was found to be 26% against Sirt1 (setting [2]) and 21% against Sirt2. For the same molecule, the inhibition at 50 µM against Sirt3 turned out to be 79%.
Consider `NC(=O)c1cncc(/C=C/c2ccc3c(c2)OCO3)c1` [Compound 2g], for which the results for the inhibition at 50 µM against Sirt1 (setting [2]), against Sirt3 and against Sirt2 were 52%, 87% and 62%, respectively.
For `NC(=O)c1cncc(/C=C/c2cccc(NC(=O)c3ccc(OCc4ccccc4)cc3)c2)c1` [Compound 2h], at Sirt1, the Sirt1 inhibition entry was “n.i”. In addition, on Sirt3, the Sirt3 inhibition result is reported as “n.i”. This molecule displayed an inhibition at 10 µM on Sirt2 of 9%.
For the molecule `NC(=O)c1cncc(C2=Cc3ccccc3CC2)c1` [Compound 4a], at Sirt1, the Sirt1 inhibition entry is “complete loss of activity and n.i”. The inhibition at 10 µM is 38% on Sirt3 and 48% on Sirt2.
Consider `NC(=O)c1cncc(-c2ccc3ccccc3c2)c1` [Compound 4b], for which the Sirt1 inhibition result on Sirt1 is “complete loss of activity and n.i”. Moreover, the inhibition at 10 µM against Sirt3 worked out at 38%; against Sirt2, 45%.
By melting point is commonly meant the temperature of the solid-liquid transition. In the case of `NC(=O)c1cnc2c(ccc3ccccc32)c1` [Compound 8a], the melting point was found to be 276.8 °C. For the same molecule, the Sirt1 inhibition result on Sirt1 is “complete inactivity and n.i”. Further, on Sirt3, the Sirt3 inhibition entry is “complete inactivity and n.i”. The Sirt2 inhibition entry on Sirt2 (n.i. = no inhibition detected, tested at 100 µM, 50 µM and 10 µM) was “complete inactivity and n.i”.
